Our source for the Kd values is article PMC12063423, “Identification of the methionine transporter MetQ in Streptococcus suis and its contribution to virulence and biofilm formation” (Veterinary Research, 2025).

For the assay, the target named is T1, MetQ (SSU1577) (Streptococcus suis, UniProt A0A0H3N1C6).
T1 construct: gene SSUBM407_1651; mature protein aa 31-283 without signal peptide (1-29) and lipobox Cys30; codon-optimised, pET16b, E. coli BL21(DE3); full-length precursor 283 aa
The assay can be described thus: isothermal titration calorimetry, one-site model. The assay is classed as binding. Conditions: PBS pH 7.3, 25 °C; 38.8 µM protein in cell, 200 µM ligand in syringe. (Isothermal titration calorimetry measures the heat released or taken up as one component is titrated into another.)

T1 sequence (A0A0H3N1C6 entry or part of it): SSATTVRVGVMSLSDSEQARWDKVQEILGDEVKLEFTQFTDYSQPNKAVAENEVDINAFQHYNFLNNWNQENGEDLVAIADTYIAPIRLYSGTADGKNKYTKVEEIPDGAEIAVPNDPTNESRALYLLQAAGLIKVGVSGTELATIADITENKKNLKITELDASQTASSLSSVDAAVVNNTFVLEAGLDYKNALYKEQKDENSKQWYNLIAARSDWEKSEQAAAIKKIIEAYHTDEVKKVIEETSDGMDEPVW

`CSCC[C@H](N)C(=O)O` [L-methionine]: the Kd (commonly the concentration at which binding is half-saturated) came to 7.1 µM.
